The results in this text go back to patent publication US9133178B2, “Alpha-7 nicotinic receptor modulators for the treatment of pain, a psychotic disorder, cognitive impairment or alzheimer'S disease” (Proximagen Limited, priority 2010, dated 2015).

Structures can show the parent of a compound that is named as a salt. Where only a bound is given, the exact number is not on record here.

T1 sequence (P36544 23-502): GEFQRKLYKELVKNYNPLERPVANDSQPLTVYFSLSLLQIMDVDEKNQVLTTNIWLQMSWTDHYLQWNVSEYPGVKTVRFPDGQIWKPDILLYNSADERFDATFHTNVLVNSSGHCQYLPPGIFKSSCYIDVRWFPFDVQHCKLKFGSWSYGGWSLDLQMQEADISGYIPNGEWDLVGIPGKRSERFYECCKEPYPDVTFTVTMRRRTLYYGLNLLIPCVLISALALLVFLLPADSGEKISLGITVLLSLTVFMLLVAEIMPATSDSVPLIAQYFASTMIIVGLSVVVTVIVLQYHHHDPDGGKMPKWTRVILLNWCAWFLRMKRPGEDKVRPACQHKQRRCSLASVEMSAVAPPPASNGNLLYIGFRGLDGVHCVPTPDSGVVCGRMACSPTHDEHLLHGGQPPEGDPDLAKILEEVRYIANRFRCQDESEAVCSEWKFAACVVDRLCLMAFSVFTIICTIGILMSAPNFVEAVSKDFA

The first test concerns the target T1, human α7 nAChR (Homo sapiens, UniProt P36544).
T1 construct: expressed in transfected cells; host or cells: GH4C1 (rat pituitary cell line)
Nature of the test: cell-based calcium flux assay (FLIPR) for PAM activity at the α7 nAChR. As to conditions: Table 1; potentiation of nicotine-evoked calcium flux, GH4C1 cells stably transfected with human α7 nAChR; read-out: a7 new sm > PXC50 MEAN. As to the method: The PAM activity of the compounds of the invention at the α7 nAChR may be determined using the following cell-based calcium flux assay which uses a Fluorimetric Image Plate Reader (FLIPR) (see Schroeder et al.; J. Biomolecular Screening, 1(2), p 75-80, 1996).
GH4C1 cell line stably transfected with human α7 nAChR was suspended in a 384 well plate and incubated at 30° C. for 48 h in a 5% carbon dioxide atmosphere. The growth media was removed and the cells washed three times with a solution of Hanks' balanced salt solution (HBSS), 20 mM HEPES and 2.5 mM probenecid leaving 20 μl washing solution in each well. A loading solution (200) containing HBSS, probenecid, 1-4 μM Fluo4 AM (a calcium indicator dye) and pluronic acid was added and the plate incubated for 45 min at 37° C. under an atmosphere free from carbon dioxide. The cells were washed three times leaving 30 μl in each well. The plate containing the cells and calcium indicator dye were then transferred to the FLIPR. The assay was initiated by collecting baseline datapoints at 10 second intervals followed by addition of the test compound in buffer solution (0.33% DMSO) and diluted to a final concentration of 10 μM and serial dilution of the wells, 1:2 or 1:3, gave a low concentration of <1 nM. Following a further 5-10 mins 10 μl of 50 μM nicotine was added and data collected for 2 to 3 mins. Nicotine produced a rapid, transient and reproducible calcium flux which could be potentiated with the positive allosteric modulator test compounds.
Turning to `Cc1cc(-c2cnc(N3C[C@@H](C)O[C@@H](C)C3)cc2-c2ccoc2C)ccn1` [Example 11, 6-(cis-2,6-dimethyl-4-morpholinyl)-2′-methyl-4-(2-methyl-3-furanyl)-3,4′-bipyridine hydrochloride], the EC50 was at most 3.16 µM. Still for that read-out and setting: in the case of `Cc1occc1-c1nc(N2CCCC(C)C2)ncc1-c1ccncc1` (centres unmarked) [Example 1, 4-(2-Methyl-3-furanyl)-2-(3-methyl-1-piperidinyl)-5-(4-pyridinyl)pyrimidine hydrochloride] it was at most 1 µM; in that of `Cc1cc(-c2cnc(N3C[C@@H](C)O[C@@H](C)C3)nc2CC(C)C)ccn1` [Example 9, cis-2,6-Dimethyl-4-[4-(2-methylpropyl)-5-(2-methyl-4-pyridinyl)-2-pyrimidinyl]morpholine hydrochloride], at most 1 µM; in that of `Cc1occc1-c1nc(N2CCCC(C)C2)ncc1-c1cccnc1` (centres unmarked) [Example 2, 4-(2-Methyl-3-furanyl)-2-(3-methyl-1-piperidinyl)-5-(3-pyridinyl)pyrimidine hydrochloride], at most 10 µM. For the compound `Cc1cnccc1-c1cnc(N2C[C@@H](C)O[C@@H](C)C2)nc1-c1ccoc1C` [Example 15, cis-2,6-dimethyl-4-[4-(2-methyl-3-furanyl)-5-(3-methyl-4-pyridinyl)-2-pyrimidinyl]morpholine hydrochloride], the EC50 was at most 3.16 µM. The same measure, in the same setting: in the case of `Cc1cc(-c2ccc(N3C[C@@H](C)O[C@@H](C)C3)cc2-c2ccoc2C)ccn1` [Example 13, cis-2,6-Dimethyl-4-[3-(2-methyl-3-furanyl)-4-(2-methyl-4-pyridinyl)phenyl]morpholine] it was at most 1 µM; in that of `Cc1cc(-c2ccc(N3C[C@@H](C)O[C@@H](C)C3)nc2-c2ccoc2C)ccn1` [Example 12, 6-(cis-2,6-dimethyl-4-morpholinyl)-2′-methyl-2-(2-methyl-3-furanyl)-3,4′-bipyridine hydrochloride], at most 3.16 µM. The same measure, in the same setting: in the case of `Cc1cc(-c2cnc(N3CCCC(C)C3)nc2-c2ccoc2C)ccn1` (centres unmarked) [Example 3, 4-(2-Methyl-3-furanyl)-2-(3-methyl-1-piperidinyl)-5-(2-methyl-4-pyridinyl)pyrimidine hydrochloride] it was at most 1 µM; in that of `Cc1cc(-c2ncc(N3C[C@@H](C)O[C@@H](C)C3)nc2-c2ccoc2C)ccn1` [Example 10, cis-2,6-Dimethyl-4-[6-(2-methyl-3-furanyl)-5-(2-methyl-4-pyridinyl)-2-pyrazinyl]morpholine hydrochloride], at most 3.16 µM; in that of `Cc1cc(-c2cnc(N3C[C@@H](C)O[C@@H](C)C3)nc2-c2ccccc2C)ccn1` [Example 14, cis-2,6-Dimethyl-4-[4-(2-methylphenyl)-5-(2-methyl-4-pyridinyl)-2-pyrimidinyl]morpholine], at most 3.16 µM. As to `Cc1cc(-c2cnc(N3CCCCC3)nc2-c2ccoc2C)ccn1` [Example 4, 4-(2-Methyl-3-furanyl)-5-(2-methyl-4-pyridinyl)-2-(1-piperidinyl)pyrimidine hydrochloride], the EC50 was at most 1 µM. Regarding `Cc1cc(-c2cnc(N3C[C@H](C)O[C@@H](C)C3)nc2-c2ccoc2C)ccn1` (relative stereo) [Example 6, trans-2,6-Dimethyl-4-[4-(2-methyl-3-furanyl)-5-(2-methyl-4-pyridinyl)-2-pyrimidinyl]morpholine hydrochloride], the EC50 was at most 1 µM.

On to `Cc1cc(-c2cnc(N3C[C@@H](C)O[C@@H](C)C3)nc2-c2cccc(C(F)(F)F)c2C#N)ccn1` [Example 19, cis-2-[2-(2,6-dimethyl-4-morpholinyl)-5-(2-methyl-4-pyridinyl)-4-pyrimidinyl]-6-(trifluoromethyl)benzonitrile hydrochloride], for which the EC50 is at most 1 µM. Still for that read-out and setting: the same measure for `Cc1occc1-c1nc(N2CCCCCC2)ncc1-c1ccccn1` [Example 7, 1-[4-(2-Methyl-3-furanyl)-5-(2-Pyridinyl)-2-pyrimidinyl]hexahydro-1H-azepine hydrochloride]: at most 10 µM; for `Cc1cc(-c2cnc(N3C[C@@H](C)O[C@@H](C)C3)nc2-c2cc(F)ccc2C#N)ccn1` [Example 18, cis-2-[2-(2,6-Dimethyl-4-morpholinyl)-5-(2-methyl-4-pyridinyl)-4-pyrimidinyl]-4-fluorobenzonitrile hydrochloride]: at most 10 µM; for `Cc1occc1-c1nc(N2CCCC(C)C2)ncc1-c1ccccn1` (centres unmarked) [Example 8, 4-(2-Methyl-3-furanyl)-2-(3-methyl-1-piperidinyl)-5-(2-pyridinyl)pyrimidine hydrochloride]: at most 3.16 µM. As to `Cc1cc(-c2cnc(N3C[C@@H](C)O[C@@H](C)C3)nc2-c2cccnc2C(F)(F)F)ccn1` [Example 16, cis-2,6-Dimethyl-4-{5-(2-methyl-4-pyridinyl)-4-[2-(trifluoromethyl)-3-pyridinyl]-2-pyrimidinyl}morpholine hydrochloride], the EC50 was at most 10 µM. Same read-out and setting: the same measure for `Cc1cc(-c2cnc(N3C[C@@H](C)O[C@@H](C)C3)nc2-c2cnc(F)cc2C)ccn1` [Example 17, cis-4-[4-(6-Fluoro-4-methyl-3-pyridinyl)-5-(2-methyl-4-pyridinyl)-2-pyrimidinyl]-2,6-dimethylmorpholine hydrochloride]: at most 3.16 µM; for `Cc1cc(-c2cnc(N3C[C@@H](C)O[C@@H](C)C3)nc2-c2ccoc2C)ccn1` [Example 5, cis-2,6-Dimethyl-4-[4-(2-methyl-3-furanyl)-5-(2-methyl-4-pyridinyl)-2-pyrimidinyl]morpholine hydrochloride]: at most 1 µM.

Staying with this test, now noted: Table 2, commercially available compounds; potentiation of nicotine-evoked calcium flux, GH4C1 cells stably transfected with human α7 nAChR; read-out: a7 new sm > PXC50 MEAN.
Turning to `c1coc(-c2cnc(N3CCSCC3)nc2-c2ccco2)c1` [LMK 13280444], the EC50 is at most 3.16 µM. For `Cc1occc1-c1nc(N2CCCCCC2)ncc1-c1ccncc1` [ATL 13269690 or ADM 13269690], the EC50 was at most 3.16 µM. Turning to `Cc1ccc(-c2nc(N3CCCC(C)C3)ncc2-c2cc(C)no2)cn1` (centres unmarked) [ADM 14220368], the EC50 was at most 1 µM. Same read-out and setting: in the case of `Cc1occc1-c1nc(N2CCN(C(=O)c3ccco3)CC2)ncc1-c1ccccn1` [ADM 13270126] it was at most 10 µM; in that of `c1ccc(-c2nnc(N3CCCC3)nc2-c2ccccc2)cc1` [AO-476/43380313], at most 1 µM. For the compound `Cc1ccc(-c2nc(N3CCCC3)ncc2-c2cc(C)no2)cn1` [ADM 14220366], the EC50 is at most 10 µM.

Regarding `Cc1cc(-c2cnc(N3CCSCC3)nc2-c2ccc(C)s2)on1` [ADM 14408364], the EC50 is at most 3.16 µM. Same read-out and setting: in the case of `Cc1occc1-c1nc(N2CCCCC2)ncc1-c1ccncc1` [ADM 13269676] it was at most 1 µM; in that of `Cc1ccc(-c2nc(N3CCCC(C)C3)ncc2-c2ccncc2)cn1` (centres unmarked) [AOP 13274016], at most 1 µM. For `Cc1occc1-c1nc(N2CCCC(C)C2)ncc1-c1ccncc1` (centres unmarked) [ADM 13269678], the EC50 was at most 1 µM. In the case of `COc1cc(-c2cnc(N3CCCCC3)nc2-c2ccco2)nc(OC)n1` [ATL 14631888], the EC50 is at most 10 µM.

On to `c1cc(-c2cnc(N3CCCCC3)nc2-c2ccoc2)ccn1` [ADM 14465561], for which the EC50 is at most 10 µM. As to `COc1cc(-c2cnc(N3CCCC3)nc2-c2ccco2)nc(OC)n1` [ATL 14631887], the EC50 was at most 10 µM.

As for `Cc1noc(C)c1-c1nc(N2CCCC(C)C2)ncc1-c1ccncc1` (centres unmarked) [AOP 14465526], the EC50 was at most 3.16 µM. In the case of `c1cc(-c2cnc(N3CCSCC3)nc2-c2ccoc2)ccn1` [ADM 14465558], the EC50 is at most 1 µM.

Take `Cc1ccc(-c2nc(N3CCCCC3)ncc2-c2ccncc2)cn1` [AOP 13274014]: the EC50 is at most 3.16 µM. Turning to `Cc1noc(C)c1-c1nc(N2CCCCCC2)ncc1-c1ccncc1` [AOP 14465544], the EC50 was at most 3.16 µM.

As to `Cc1occc1-c1nc(N2CC(C)OC(C)C2)ncc1-c1ccncc1` (centres unmarked) [ADM 13269721], the EC50 is at most 1 µM. As for `Cc1ccc(-c2nc(N3CCCCC3)ncc2-c2cc(C)no2)cn1` [ADM 14220371], the EC50 is at most 1 µM. Same read-out and setting: the same measure for `Cc1noc(C)c1-c1nc(N2CCSCC2)ncc1-c1ccncc1` [AOP 14465529]: at most 10 µM; for `Cc1occc1-c1nc(N2CCSCC2)ncc1-c1ccncc1` [ADM 13269686]: at most 3.16 µM. On the same count and under the same terms, the same measure for `Cc1cc(-c2cnc(N3CCSCC3)nc2-c2ccc(C)o2)on1` [AEM 14465590]: at most 3.16 µM; for `CC1CCCN(c2ncc(-c3ccncc3)c(-c3ccco3)n2)C1` (centres unmarked) [LMK 13268083]: at most 10 µM; for `Cc1occc1-c1nc(N2CCCC2)ncc1-c1ccncc1` [ADM 13269675]: at most 3.16 µM.

The test is the same for the next values; noted with them: further batch (as the HCl salt); read-out: pEC50 (converted).
As to `Cc1cc(-c2cnc(N3C[C@@H](C)O[C@@H](C)C3)nc2-c2ccccc2C#N)ccn1`, the EC50 was above 10 µM.

The same test, now with this note: further batch (as the HCl salt); relative to nicotine control.
For the compound `Cc1cc(-c2cnc(N3C[C@@H](C)O[C@@H](C)C3)nc2-c2ccccc2C#N)ccn1`, the “maximum potentiation of the response area relative to nicotine control” value is listed as “approximately 1200%”.

Staying with this test, now noted: potentiation of nicotine-evoked calcium flux; read-out: pEC50 (converted).
Regarding `Cc1cc(-c2cnc(N3C[C@@H](C)O[C@@H](C)C3)nc2-c2ccccc2C#N)ccn1`, the EC50 is around 2.51 µM.

The same test, now with this note: relative to nicotine control.
`Cc1cc(-c2cnc(N3C[C@@H](C)O[C@@H](C)C3)nc2-c2ccccc2C#N)ccn1`: the “maximum potentiation of the response area relative to nicotine control” value was “approximately 1200%”.
